Laboratory results as given in US20170348331A1, “METHODS AND COMPOSITIONS FOR […] LEVELS” (Children's Hospital & Research Center at Oakland, priority 2013, published 2017).

How the values were obtained:
melatonin production = conditions: increasing doses of vitamin D supplementation; cited from earlier work
TPH1 [1] = test: TPH1 expression in peripheral blood cells of a pregnant mother by ELISA; type: in vivo, human; conditions: pregnant mother with elevated TPH1, ~1,000 IU per 11.3 kg per day, after 4 weeks
Description: TPH1 expression levels are determined from peripheral blood cells by ELISA analysis from a pregnant mother. […] This means that the mother has increased risk of having autistic child. Vitamin D is then be administered ˜1,000 IU per 11.3 kg per day. After 4 weeks of the vitamin D treatment, TPH1 expression levels are assayed in peripheral blood by ELISA analysis again. […] The vitamin D treatment will continue through pregnancy and breastfeeding. This implies the risk of having autistic child is reduced.

[2] = tested on: regulatory T cells (Tregs); conditions: vitamin D supplementation; cited from earlier work
TPH1 [3] = test: TPH1 expression in placental tissue homogenate of a pregnant person by ELISA; type: in vivo, human; conditions: pregnant person with elevated TPH1, about 1,000 IU per 11.3 kg per day, after 4 weeks
Description: TPH1 expression levels are determined from placental tissue homogenate obtained from a pregnant person by ELISA analysis. […] This means that the parent has increased risk of having child with autistic spectrum disorder. Vitamin D is then administered to the pregnant person at about 1,000 IU per 11.3 kg per day. After 4 weeks of the vitamin D treatment, TPH1 expression levels are assayed in placental tissue homogenate by ELISA analysis again. […] This implies the risk of having autistic child is reduced.

Vitamin D
melatonin production (melatonin production): dose-dependent decrease
TPH1 expression level in peripheral blood (TPH1 [1]): decreased to normal range
Tregs in peripheral blood [2]: significantly increase Tregs
TPH1 expression level in placental tissue homogenate (TPH1 [3]): decreased to normal range
